Laboratory results: patent US7741283B2, “Compositions and methods for inhibiting cell proliferation” (St. Louis University, priority 2003, dated 2010)
Where a SMILES comes first, the peptide text is derived from it. The star is where a group is joined. Cbz = O=C(OCc1ccccc1)*

Tests used:
acidic pH binding sites [1] = molecular target: acidic pH binding sites (Neogale vison, UniProt A0A8C7BSJ2); assay: Specific binding of 125I-ligands to Mv1Lu cells at acidic pH; parameters: species or system mink; settings: for Specific binding of ^125I-α2M*: 10 μM protein, pH 5.5, Mv1Lu
Chain of acidic pH binding sites (Neogale vison, UniProt A0A8C7BSJ2) (A0A8C7BSJ2 entry or part of it): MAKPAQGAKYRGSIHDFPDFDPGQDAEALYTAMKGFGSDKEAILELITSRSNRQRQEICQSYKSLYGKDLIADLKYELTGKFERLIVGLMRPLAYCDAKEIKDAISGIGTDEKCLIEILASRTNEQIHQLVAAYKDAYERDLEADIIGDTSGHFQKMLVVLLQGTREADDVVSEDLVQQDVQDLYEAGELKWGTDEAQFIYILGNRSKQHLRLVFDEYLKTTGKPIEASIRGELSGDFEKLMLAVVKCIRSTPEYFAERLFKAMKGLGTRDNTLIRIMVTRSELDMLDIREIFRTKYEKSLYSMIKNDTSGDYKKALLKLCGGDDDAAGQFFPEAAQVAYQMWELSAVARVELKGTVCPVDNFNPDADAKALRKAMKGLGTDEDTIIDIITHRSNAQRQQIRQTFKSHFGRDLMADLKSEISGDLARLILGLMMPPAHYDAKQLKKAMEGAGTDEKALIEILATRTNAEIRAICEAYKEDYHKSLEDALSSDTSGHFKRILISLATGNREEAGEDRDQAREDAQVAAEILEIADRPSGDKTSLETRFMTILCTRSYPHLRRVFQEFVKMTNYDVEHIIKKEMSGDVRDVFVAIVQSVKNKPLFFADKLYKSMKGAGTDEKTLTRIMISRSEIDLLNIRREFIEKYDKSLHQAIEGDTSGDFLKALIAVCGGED

LRP-1 [2] = assay: 125I-α2M* binding to Mv1Lu cells at pH 7.4; parameters: species or system mink; settings: for ^125I-α2M* binding to LRP-1: 10 μg/ml, neutral pH, Mv1Lu cells; for ^125I-α2M* binding: 10 μM protein, pH 7.4, Mv1Lu
IRS-2 = assay: 32P metabolic labeling and immunoprecipitation of IRS-2, Mv1Lu cells; type: cell-based, mink; settings: for Effect of proteolysis inhibitors on IGFBP-3-induced mobility change of IRS-2: Mv1Lu, 1 hr prior to and during IGFBP-3 treatment
LRP-1 [3] = molecular target: T1, LRP-1 (Mus musculus, UniProt Q91ZX7); assay: 125I-α2M* binding to MEF cells at pH 7.4; settings: for ^125I-α2M* binding: 10 μM protein, pH 7.4, MEF
T1 construct: endogenous in cells; host or cells: MEF (mouse embryonic fibroblasts)
T1 sequence (Q91ZX7 20-4545): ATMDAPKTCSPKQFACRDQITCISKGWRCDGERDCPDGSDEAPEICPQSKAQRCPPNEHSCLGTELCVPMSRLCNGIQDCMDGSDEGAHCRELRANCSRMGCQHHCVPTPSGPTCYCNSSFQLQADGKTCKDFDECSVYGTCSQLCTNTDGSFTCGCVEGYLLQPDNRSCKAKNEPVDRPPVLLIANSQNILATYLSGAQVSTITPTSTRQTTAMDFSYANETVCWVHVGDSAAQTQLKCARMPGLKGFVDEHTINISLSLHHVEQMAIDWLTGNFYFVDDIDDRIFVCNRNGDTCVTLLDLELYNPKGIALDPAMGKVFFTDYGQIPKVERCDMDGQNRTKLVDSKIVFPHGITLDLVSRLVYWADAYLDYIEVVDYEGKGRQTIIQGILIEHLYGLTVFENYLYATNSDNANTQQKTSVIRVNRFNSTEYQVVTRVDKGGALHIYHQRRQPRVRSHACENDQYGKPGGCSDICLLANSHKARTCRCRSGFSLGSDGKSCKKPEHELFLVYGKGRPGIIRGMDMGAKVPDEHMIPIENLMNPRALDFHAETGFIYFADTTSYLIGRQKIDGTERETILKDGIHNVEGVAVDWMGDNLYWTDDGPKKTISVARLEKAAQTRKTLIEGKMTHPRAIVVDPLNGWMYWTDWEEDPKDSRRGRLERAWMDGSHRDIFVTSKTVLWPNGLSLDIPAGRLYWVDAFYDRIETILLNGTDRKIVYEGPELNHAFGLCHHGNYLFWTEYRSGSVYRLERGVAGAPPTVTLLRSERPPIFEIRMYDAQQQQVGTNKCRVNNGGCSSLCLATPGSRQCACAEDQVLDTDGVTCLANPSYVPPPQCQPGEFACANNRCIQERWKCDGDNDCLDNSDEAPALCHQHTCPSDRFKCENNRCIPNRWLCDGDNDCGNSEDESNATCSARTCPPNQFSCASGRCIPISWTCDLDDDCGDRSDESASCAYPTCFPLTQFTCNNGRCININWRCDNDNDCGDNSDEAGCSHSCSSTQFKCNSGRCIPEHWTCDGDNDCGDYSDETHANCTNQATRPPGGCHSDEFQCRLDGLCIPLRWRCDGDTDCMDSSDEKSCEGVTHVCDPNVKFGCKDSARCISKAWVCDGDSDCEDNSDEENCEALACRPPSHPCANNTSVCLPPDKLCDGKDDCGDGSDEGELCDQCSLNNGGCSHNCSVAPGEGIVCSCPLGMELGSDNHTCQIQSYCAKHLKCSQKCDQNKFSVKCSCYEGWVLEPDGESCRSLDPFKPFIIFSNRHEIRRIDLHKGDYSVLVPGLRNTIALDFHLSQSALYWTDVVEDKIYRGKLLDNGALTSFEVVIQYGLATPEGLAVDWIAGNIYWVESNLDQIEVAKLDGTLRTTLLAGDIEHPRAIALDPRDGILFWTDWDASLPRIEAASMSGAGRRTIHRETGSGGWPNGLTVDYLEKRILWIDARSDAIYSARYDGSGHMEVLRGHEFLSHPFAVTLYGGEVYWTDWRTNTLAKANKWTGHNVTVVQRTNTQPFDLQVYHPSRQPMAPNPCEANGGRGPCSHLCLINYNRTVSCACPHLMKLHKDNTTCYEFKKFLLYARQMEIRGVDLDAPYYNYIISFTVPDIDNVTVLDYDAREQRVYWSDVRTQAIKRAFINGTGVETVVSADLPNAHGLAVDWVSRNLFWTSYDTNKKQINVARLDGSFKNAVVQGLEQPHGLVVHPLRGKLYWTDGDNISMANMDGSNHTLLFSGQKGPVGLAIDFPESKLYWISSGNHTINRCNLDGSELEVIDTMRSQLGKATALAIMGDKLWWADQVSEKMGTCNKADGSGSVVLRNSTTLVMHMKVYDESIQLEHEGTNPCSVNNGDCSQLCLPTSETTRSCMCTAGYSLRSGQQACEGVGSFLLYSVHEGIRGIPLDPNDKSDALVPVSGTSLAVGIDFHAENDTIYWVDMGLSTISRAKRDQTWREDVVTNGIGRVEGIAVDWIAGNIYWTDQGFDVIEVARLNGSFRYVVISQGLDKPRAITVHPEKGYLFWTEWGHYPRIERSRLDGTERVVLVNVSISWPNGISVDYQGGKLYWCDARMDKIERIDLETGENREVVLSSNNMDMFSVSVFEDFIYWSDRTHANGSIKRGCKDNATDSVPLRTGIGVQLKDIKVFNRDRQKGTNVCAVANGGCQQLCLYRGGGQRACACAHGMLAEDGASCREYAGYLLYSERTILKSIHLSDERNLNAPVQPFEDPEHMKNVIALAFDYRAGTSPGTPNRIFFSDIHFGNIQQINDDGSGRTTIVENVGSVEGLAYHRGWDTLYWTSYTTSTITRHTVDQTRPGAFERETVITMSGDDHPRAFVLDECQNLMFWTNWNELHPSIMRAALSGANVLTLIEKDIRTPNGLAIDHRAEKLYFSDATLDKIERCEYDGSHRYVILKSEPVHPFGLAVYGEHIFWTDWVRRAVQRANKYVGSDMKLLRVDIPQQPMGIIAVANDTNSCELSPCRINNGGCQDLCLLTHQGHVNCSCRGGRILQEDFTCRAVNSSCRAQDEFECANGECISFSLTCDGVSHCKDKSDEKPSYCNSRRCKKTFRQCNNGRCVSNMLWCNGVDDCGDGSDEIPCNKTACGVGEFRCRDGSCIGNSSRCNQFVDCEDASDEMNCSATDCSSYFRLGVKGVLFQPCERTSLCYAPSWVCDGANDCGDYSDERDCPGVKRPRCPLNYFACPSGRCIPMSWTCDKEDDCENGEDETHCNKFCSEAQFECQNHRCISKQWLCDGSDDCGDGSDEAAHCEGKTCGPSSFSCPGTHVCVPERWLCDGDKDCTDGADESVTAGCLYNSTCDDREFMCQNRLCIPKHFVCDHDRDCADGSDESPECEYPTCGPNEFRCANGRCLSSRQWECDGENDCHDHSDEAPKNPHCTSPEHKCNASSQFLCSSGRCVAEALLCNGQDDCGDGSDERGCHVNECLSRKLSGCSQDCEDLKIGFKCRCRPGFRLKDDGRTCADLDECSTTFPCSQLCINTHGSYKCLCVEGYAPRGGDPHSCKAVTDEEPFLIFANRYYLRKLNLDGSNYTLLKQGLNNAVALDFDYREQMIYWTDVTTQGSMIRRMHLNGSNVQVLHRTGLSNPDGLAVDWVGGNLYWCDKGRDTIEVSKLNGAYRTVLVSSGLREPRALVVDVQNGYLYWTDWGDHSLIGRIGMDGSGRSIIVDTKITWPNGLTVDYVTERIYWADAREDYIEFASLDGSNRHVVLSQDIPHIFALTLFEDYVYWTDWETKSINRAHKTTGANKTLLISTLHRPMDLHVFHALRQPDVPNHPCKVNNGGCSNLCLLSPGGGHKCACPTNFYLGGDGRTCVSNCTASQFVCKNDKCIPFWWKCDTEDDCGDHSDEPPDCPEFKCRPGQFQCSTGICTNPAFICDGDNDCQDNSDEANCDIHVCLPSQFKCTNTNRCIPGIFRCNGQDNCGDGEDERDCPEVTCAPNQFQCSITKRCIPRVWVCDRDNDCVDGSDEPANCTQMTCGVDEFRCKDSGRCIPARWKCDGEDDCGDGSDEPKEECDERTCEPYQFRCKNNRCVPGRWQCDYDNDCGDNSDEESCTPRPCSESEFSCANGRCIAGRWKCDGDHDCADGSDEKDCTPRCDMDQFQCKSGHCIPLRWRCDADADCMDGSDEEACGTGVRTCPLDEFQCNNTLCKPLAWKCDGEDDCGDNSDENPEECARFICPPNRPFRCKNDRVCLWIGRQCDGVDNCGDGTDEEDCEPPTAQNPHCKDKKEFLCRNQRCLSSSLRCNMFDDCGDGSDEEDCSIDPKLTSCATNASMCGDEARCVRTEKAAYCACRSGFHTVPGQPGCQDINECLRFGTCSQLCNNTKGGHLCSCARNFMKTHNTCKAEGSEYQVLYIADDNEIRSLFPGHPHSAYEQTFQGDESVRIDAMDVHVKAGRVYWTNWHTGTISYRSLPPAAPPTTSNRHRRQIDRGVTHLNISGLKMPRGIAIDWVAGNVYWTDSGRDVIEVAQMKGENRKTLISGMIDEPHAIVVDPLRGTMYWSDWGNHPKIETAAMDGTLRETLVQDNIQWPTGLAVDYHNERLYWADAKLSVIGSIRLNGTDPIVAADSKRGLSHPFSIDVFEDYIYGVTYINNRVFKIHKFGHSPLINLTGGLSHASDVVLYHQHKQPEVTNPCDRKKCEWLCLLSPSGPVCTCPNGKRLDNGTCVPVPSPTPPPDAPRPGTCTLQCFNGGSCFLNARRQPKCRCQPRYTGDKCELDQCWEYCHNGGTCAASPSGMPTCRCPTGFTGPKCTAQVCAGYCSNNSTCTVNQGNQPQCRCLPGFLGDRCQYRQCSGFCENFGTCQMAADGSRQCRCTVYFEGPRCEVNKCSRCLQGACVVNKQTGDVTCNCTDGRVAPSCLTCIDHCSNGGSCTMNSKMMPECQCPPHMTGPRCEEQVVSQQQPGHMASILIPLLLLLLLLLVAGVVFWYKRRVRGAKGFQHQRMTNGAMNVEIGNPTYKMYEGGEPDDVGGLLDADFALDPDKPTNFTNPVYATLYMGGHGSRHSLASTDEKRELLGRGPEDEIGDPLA

acidic pH binding sites [4] = molecular target: T2, acidic pH binding sites (Mus musculus, UniProt P14824); assay: Specific binding of 125I-ligands to MEF cells at acidic pH; settings: for Specific binding of ^125I-α2M*: 10 μM protein, pH 5.5, MEF; for Inhibition of ^125I-α2M* binding to cells: MEF cells, pH 5.5, verapamil and W-5 at 100 μM
T2 sequence (P14824 2-673): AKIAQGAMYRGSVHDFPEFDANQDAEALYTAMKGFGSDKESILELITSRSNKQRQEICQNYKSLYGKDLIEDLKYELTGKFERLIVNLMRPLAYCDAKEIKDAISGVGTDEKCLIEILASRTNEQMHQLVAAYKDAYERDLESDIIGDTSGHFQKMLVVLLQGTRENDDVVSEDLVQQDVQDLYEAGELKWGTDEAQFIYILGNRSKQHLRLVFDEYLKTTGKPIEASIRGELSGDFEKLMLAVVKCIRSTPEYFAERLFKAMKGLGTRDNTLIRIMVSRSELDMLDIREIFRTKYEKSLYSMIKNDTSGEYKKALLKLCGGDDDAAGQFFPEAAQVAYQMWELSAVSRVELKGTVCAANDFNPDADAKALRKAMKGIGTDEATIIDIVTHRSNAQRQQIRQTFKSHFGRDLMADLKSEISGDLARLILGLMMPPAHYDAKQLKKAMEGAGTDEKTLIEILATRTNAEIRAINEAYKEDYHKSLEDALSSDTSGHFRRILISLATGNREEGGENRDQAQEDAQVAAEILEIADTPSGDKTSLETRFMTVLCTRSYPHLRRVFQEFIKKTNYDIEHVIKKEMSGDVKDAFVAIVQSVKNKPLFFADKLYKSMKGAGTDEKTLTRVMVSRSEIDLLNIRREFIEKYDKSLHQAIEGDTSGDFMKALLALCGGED

acidic pH binding sites [5] = molecular target: T2, acidic pH binding sites; assay: Specific binding of 125I-ligands to PEA-13 cells at acidic pH; parameters: endogenous in cells; host or cells: PEA-13 (LRP-1-deficient mouse embryonic fibroblasts); settings: for Specific binding of ^125I-α2M*: 10 μM protein, pH 5.5, PEA-13
Mv1Lu cells [6] = assay: Internalization and degradation of cell surface-bound 125I-TGF-β1 or 125I-α2M*, Mv1Lu cells; type: cell-based, mink; settings: 10 μM, pH 7.4, 1 hr at 37° C.
Method: After 1 hr at 37° C., the medium was collected and precipitated with 10% trichloroacetic acid (TCA). The TCA-soluble radioactive material in the medium represented the cellular degradation products of 125I-TGF-β1 or 125I-α2M*. The cells were then treated with trypsin (5 mg/ml), maintained for 20 min at 0° C. and centrifuged. The radioactivity in the supernate and cell pellets represented cell surface-bound and internalized 125I-TGF-β1 or 125I-α2M*, respectively. The experiments were performed in quadruplicate.
After 2.5 hr, cells were washed, then warmed to 37° C.

Mv1Lu cells [7] = assay: [methyl-3H] thymidine incorporation (DNA synthesis), Mv1Lu cells; type: cell-based, mink; settings: insulin 10 nM or cyclic RGD peptide 0.01 μg/ml alone

chondroitin sulfate B [reference compound]
Inhibition of ^125I-α2M* binding (acidic pH binding sites [1]; Mv1Lu cells, pH 5): potent inhibitors
^125I-α2M* binding to LRP-1 (LRP-1 [2]): did not significantly affect

heparin sulfate [reference compound]
Enhancement of ^125I-α2M* binding (acidic pH binding sites [1]; 1 μg/ml, Mv1Lu cells, pH 5): ~400%
Inhibition of ^125I-α2M* binding (acidic pH binding sites [1]; 10 μg/ml, Mv1Lu cells, pH 5): > 80%
^125I-α2M* binding to LRP-1 (LRP-1 [2]): did not significantly affect

chondroitin sulfate C [reference compound]
Inhibition of ^125I-α2M* binding (acidic pH binding sites [1]; Mv1Lu cells, pH 5): potent inhibitors
^125I-α2M* binding to LRP-1 (LRP-1 [2]): did not significantly affect

CC(C)C[C@@H](C=O)NC(=O)[C@H](CC(C)C)NC(=O)[C@H](CC(C)C)NC(=O)OCc1ccccc1 [MG-132, reference compound] (Cbz-Leu-Leu-Leu-aldehyde)
Effect of proteolysis inhibitors on IGFBP-3-induced mobility change of IRS-2 (IRS-2): did not affect

CC1(C(=O)O)C2CCC(O2)C1(C)C(=O)O (centres unmarked) [cantharidic acid, reference compound]
Effect of phosphatase inhibitors on IGFBP-3-induced specific dephosphorylation / mobility change of IRS-2 (IRS-2): did not appear to affect

chondroitin sulfate A [reference compound]
Inhibition of ^125I-α2M* binding (acidic pH binding sites [1]; Mv1Lu cells, pH 5): potent inhibitors
^125I-α2M* binding to LRP-1 (LRP-1 [2]): did not significantly affect

transferrin: human transferrin
^125I-α2M* binding (LRP-1 [3]): did not have a significant effect
Specific binding of ^125I-α2M* (acidic pH binding sites [4]): completely blocked
Specific binding of ^125I-α2M* (acidic pH binding sites [5]): completely blocked
Specific binding of ^125I-α2M* (acidic pH binding sites [1]): completely blocked
IC50 (acidic pH binding sites [1]; Mv1Lu cells, pH 5 or 6, read-out: IC50, inhibition of ^125I-α2M* binding to cells): ~500 nM
^125I-α2M* binding (LRP-1 [2]): did not have a significant effect

OCCN1CCN(CCCN2c3ccccc3Sc3ccc(C(F)(F)F)cc32)CC1 [fluphenazine]
Degradation of cell surface-bound ^125I-TGF-β1 or ^125I-α2M* (Mv1Lu cells [6]): completely inhibits

COC[C@@H]([C@H](O)[C@H](O)C(=O)NCC[C@H](C)c1nc(/C=C/C[C@@H]2O[C@]3(C[C@@H](O)[C@@H]2C)O[C@H]([C@H](C[C@H](O)[C@H](C)[C@H](O)[C@H](C)/C=C(C)/C(C)=C/C=C/C(C)=C\C#N)OC)[C@H](OP(=O)(O)O)C3(C)C)co1)N(C)C [calyculin A, reference compound]
Effect of phosphatase inhibitors on IGFBP-3-induced specific dephosphorylation / mobility change of IRS-2 (IRS-2): did not appear to affect

CN(C)c1cccc2c(S(=O)(=O)NCCCCCN)cccc12 [monodansylcadaverine, reference compound]
Inhibition of ^125I-α2M* binding to cells (acidic pH binding sites [4]): less effective inhibitors

microcystin [reference compound]
Effect of phosphatase inhibitors on IGFBP-3-induced specific dephosphorylation / mobility change of IRS-2 (IRS-2): did not appear to affect

NCCCCCCNS(=O)(=O)c1cccc2c(Cl)cccc12 [W-7, reference compound]
Inhibition of ^125I-α2M* binding to cells (acidic pH binding sites [4]): less effective inhibitors

CC(CN1c2ccccc2Sc2ccccc21)N(C)C (centres unmarked) [promethazine, reference compound]
Inhibition of ^125I-α2M* binding (LRP-1 [3]; MEF cells, pH 7.4): almost as effective as trifluoperazine and fluphenazine
Degradation of cell surface-bound ^125I-TGF-β1 or ^125I-α2M* (Mv1Lu cells [6]): did not exhibit any significant effect
Degradation of cell surface-bound ^125I-TGF-β1 or ^125I-α2M* (Mv1Lu cells [6]; listed as Promethazine): ineffective
Inhibition of ^125I-α2M* binding to cells (acidic pH binding sites [4]): not effective

cyclo GRGDSPA (cyclic) [cyclic RGD peptide, reference compound]
Effect alone on TGF-β1-induced inhibition of DNA synthesis (Mv1Lu cells [7]): Neither insulin (10 nM) nor the cyclic RGD peptide (0.01 μg/ml) alone affected

C=C1[C@@H](O)[C@@H]2O[C@]3(CC[C@H](/C=C/[C@@H](C)[C@@H]4CC(C)=C[C@@]5(O[C@H](C[C@@](C)(O)C(=O)O)CC[C@H]5O)O4)O3)CC[C@H]2O[C@@H]1[C@@H](O)C[C@H](C)[C@H]1O[C@@]2(CCCCO2)CC[C@H]1C [okadaic acid, reference compound]
Effect of phosphatase inhibitors on IGFBP-3-induced specific dephosphorylation / mobility change of IRS-2 (IRS-2): effectively blocked

Pseudomonas exotoxin: a ligand of LRP-1
Inhibition of ^125I-α2M* binding to cells (acidic pH binding sites [1]; 0.5 μM, Mv1Lu cells, pH 5 or 6): did not effectively inhibit

CSCC[C@@H](C=O)NC(=O)[C@H](CC(C)C)NC(=O)[C@H](CC(C)C)NC(C)=O [calpain inhibitor II, reference compound] (Ac-Leu-Leu-Met-aldehyde)
Effect of proteolysis inhibitors on IGFBP-3-induced mobility change of IRS-2 (IRS-2): did not affect

apoE: human apoE
^125I-α2M* binding (LRP-1 [3]): did not have a significant effect
Specific binding of ^125I-α2M* (acidic pH binding sites [4]): completely blocked
Specific binding of ^125I-α2M* (acidic pH binding sites [5]): completely blocked
Specific binding of ^125I-α2M* (acidic pH binding sites [1]): completely blocked
^125I-α2M* binding (LRP-1 [2]): did not have a significant effect

native α2M: human α2-macroglobulin purified from plasma
IC50 (acidic pH binding sites [5]; PEA-13 cells, acidic pH, read-out: IC50, inhibition of ^125I-α2M* binding): > 400 nM

[O]=[V]([O-])([O-])[O-] [vanadale, reference compound]
Effect of phosphatase inhibitors on IGFBP-3-induced specific dephosphorylation / mobility change of IRS-2 (IRS-2): did not appear to affect

NCCCCCCNS(=O)(=O)c1cccc2ccccc12 [W-5, reference compound]
Inhibition of ^125I-α2M* binding to cells (acidic pH binding sites [4]): inactive
